Legend:
[1] = target: T1, recombinant human FLAP protein (Homo sapiens, UniProt P20292); assay: FLAP binding assay (SPA, displacement of [125I]L-691,831); conditions: membranes of sf9 cells expressing recombinant human FLAP; [125I]L-691,831 probe; read-out: FLAP binding IC50
T1 construct: made in house; host or cells: Sf9 insect cells (100,000×g membrane pellet used)
T1 sequence (P20292 1-161): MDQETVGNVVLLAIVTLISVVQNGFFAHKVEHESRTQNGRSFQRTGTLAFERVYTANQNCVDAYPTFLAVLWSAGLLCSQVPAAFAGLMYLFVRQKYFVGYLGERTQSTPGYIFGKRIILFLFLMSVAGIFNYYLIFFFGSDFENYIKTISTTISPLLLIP
Method in brief: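 Membranes from sf9 cells expressing human FLAP in pH 7.5 Tris buffer (MgCl2, EDTA, PMSF). Non-specific binding defined with 10 μM cold L-691,831.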

[2] = system: synthesis of LTB4 in human whole blood; assay: Human whole blood assay (inhibition of LTB4 synthesis, calcimycin stimulated); format: cell-based; conditions: heparinized human whole blood, calcimycin 20 μM, plasma LTB4
Method in brief: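 LTB4 in plasma was quantified by HTRF immunoassay. Before that, compound-treated heparinized whole blood (15 min, 37 °C) received 20 μM final calcimycin for a further 30 min at 37 °C, followed by centrifugation at 1500×g.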

| Structure (SMILES) | IC50 [1] [nM] | IC50 [2] [nM] |
| --- | --- | --- |
| Cn1cc(-c2nc(C(C)(c3ccc(-c4cnc(N)nc4)cc3)C3CC3)no2)cn1 (stereo not drawn) [Example 22, 5-(4-{1-cyclopropyl-1-[5-(1-methyl-1H-pyrazol-4-yl)-1,2,4-oxadiazol-3-yl]ethyl}phenyl)pyrimidin-2-amine] | 4.2 | 46 |
| CC(c1ccc(-c2cnc(N)nc2)cc1)(c1noc(-c2cncn2C2COC2)n1)C1CC1 (stereo not drawn) [Example 206, 5-(4-{1-Cyclopropyl-1-[5-(3-oxetan-3-yl-3H-imidazol-4-yl)-[1,2,4]oxadiazol-3-yl]-ethyl}-phenyl)-pyrimidin-2-ylamine] | 23 | 310 |
| CC(C)[C@](C)(c1ccc(-c2cnc(N)nc2)cc1)c1noc(-c2cn[nH]c2)n1 [Example 77, 5-(4-{(2R)-3-methyl-2-[5-(1H-pyrazol-4-yl)-1,2,4-oxadiazol-3-yl]butan-2-yl}phenyl)pyrimidin-2-amine] | 1.7 | 36 |
| CC(C)C(C)(c1ccc(-c2cnc(N)nc2)cc1)c1noc(NCCN(C)C)n1 (stereo not drawn) [Example 171, N-(3-{1-[4-(2-Amino-pyrimidin-5-yl)-phenyl]-1,2-dimethyl-propyl}-[1,2,4]oxadiazol-5-yl)-N′,N′-dimethyl-ethane-1,2-diamine] | 220 | 1900 |
| CC(c1ccc(-c2cnc(N)nc2)cc1)(c1noc(-c2cc[nH]n2)n1)C1CC1 (stereo not drawn) [Example 25, 5-(4-{1-cyclopropyl-1-[5-(1H-pyrazol-3-yl)-1,2,4-oxadiazol-3-yl]ethyl}phenyl)pyrimidin-2-amine] | 6 | 170 |
| Cc1nc(N)ncc1-c1ccc([C@](C)(c2noc(-c3cnn(CC(=O)N(C)C)c3)n2)C2CC2)cc1 [Example 257, 2-[4-(3-{(R)-1-[4-(2-Amino-4-methyl-pyrimidin-5-yl)-phenyl]-1-cyclopropyl-ethyl}-[1,2,4]oxadiazol-5-yl)-pyrazol-1-yl]-N,N-dimethyl-acetamide] | 7.3 | 150 |
| CC(C)C(C)(c1ccc(-c2cnc(N)nc2)cc1)c1noc(N2CCC(S(C)(=O)=O)CC2)n1 (stereo not drawn) [Example 208, 5-(4-{1-[5-(4-Methanesulfonyl-piperidin-1-yl)-[1,2,4]oxadiazol-3-yl]-1,2-dimethyl-propyl}-phenyl)-pyrimidin-2-ylamine] | 13 | 250 |
| COc1cncc(-c2ccc(C(C)(c3noc(-c4cnn(C)c4)n3)C3CC3)cc2)c1 (stereo not drawn) [Example 286, 3-(4-{1-Cyclopropyl-1-[5-(1-methyl-1H-pyrazol-4-yl)-[1,2,4]oxadiazol-3-yl]-ethyl}-phenyl)-5-methoxy-pyridine] | 16 | 2100 |
| COc1ccncc1-c1nc(C(C)(c2ccc(-c3cnc(N)nc3)cc2)C(C)C)no1 (stereo not drawn) [Example 11, 5-(4-{2-[5-(4-methoxypyridin-3-yl)-1,2,4-oxadiazol-3-yl]-3-methylbutan-2-yl}phenyl)pyrimidin-2-amine] | 1.9 | 89 |
| Cn1nccc1-c1nc(C(C)(c2ccc(-c3cnc(N)nc3)cc2)C2CC2)no1 (stereo not drawn) [Example 27, 5-(4-{1-cyclopropyl-1-[5-(1-methyl-1H-pyrazol-5-yl)-1,2,4-oxadiazol-3-yl]ethyl}phenyl)pyrimidin-2-amine] | 12 | 330 |
| CC(C)[C@@](C)(c1ccc(-c2cnc(N)nc2)cc1)c1noc(-c2ccn[nH]2)n1 [Example 24, 5-(4-{(2S)-3-methyl-2-[5-(1H-pyrazol-5-yl)-1,2,4-oxadiazol-3-yl]butan-2-yl}phenyl)pyrimidin-2-amine] | 19 | 410 |
| CC(C)C(C)(c1ccc(-c2cnc(N)nc2)cc1)c1noc(-c2ccc(=O)[nH]c2)n1 (stereo not drawn) [Example 9, 5-(3-{2-[4-(2-aminopyrimidin-5-yl)phenyl]-3-methylbutan-2-yl}-1,2,4-oxadiazol-5-yl)pyridin-2(1H)-one] | 2.9 | 210 |
